This is an account of results in US11964938B2, “3-phenyl-4-hexynoic acid derivatives as GPR40 agonists” (CELON PHARMA S.A., priority 2018, dated 2024).

Structures are written as SMILES.

The target of data set [1] is T1, human GPR40 receptor (Homo sapiens, UniProt O14842).
T1 construct: host or cells: CHO-K1 (co-expressing aequorin)
Put plainly: Analysis of receptor activation - calcium ions concentration measurement (aequorin luminescence). The class given is cell-based. The note with it: enhancement or decrease of activity in relation to reference TAK-875, from EC50 values. From the text:
Experiment B1: Analysis of Receptor Activation—Calcium Ions Concentration Measurement.
As a result of the measurement, luminescence change in the time curve were obtained, the integration of which allowed to calculate the relative amount of calcium ions released to cytosol. […] Curves plotted from obtained results allowed to determine EC50 values.

Data set [2] has as its system Wistar HAN Crl:WI (HAN) rats. Put plainly: Glucose tolerance test in vivo on rats. The arrangement: species or system rat. The note with it: 10 mg/kg oral single dose, blood; for AUC for glucose (0-540 min.): i.p. glucose bolus at t=0 and 6 h; for AUC for insulin (0-180 min.): i.p. glucose bolus. The method, then:
Experiment B3: Glucose Tolerance Test In Vivo on Rats.
To evaluate glucose lowering effect of the compounds in in vivo study, glucose tolerance test (GTT) was performed. The study was performed on male outbred Wistar HAN Crl:WI (HAN) rats from Charles River, weight about 250-300 g, 8-10 weeks old. Rats were starved for 12 hours (with free access to water).
At time point t=0 animals were given orally a single dose of a compound (by a gastric tube) and immediately (t=0) and after 6 hour (t=6 h) intraperitoneal (i.p.) glucose bolus ([…]). At time points t=0 (just before oral administration of the compounds and intraperitoneal glucose administration), 0.25, 0.5, 1, 2, 2.5, 3, 6, 6.25, 7, 8, and 9 h blood samples from tail vein were collected from each animal for glucose level determination using Accu-chek glucometer (Roche Diagnostics) and additionally at t=0.25, 0.5, 1, 2, 2.5, and 3 h blood samples from tail vein were collected for insulin level measurement using ELISA test (Mercodia).
Tested compound were prepared in 5% DMSO/40% PEG300/55% PBS vehicle and administered at the dose of 10 mg/kg body weight in a volume of 0.5 ml/100 g body weight. After 4 hours after tested compound administration animals were given standard diet to the cages. Decrease of AUC value for glucose level in blood was calculated and the results for selected compounds of the invention are presented in Table 5. Analysis was performed using GraphPad prism software.

Data set [3] concerns MIN6 (mouse insulinoma) cells. Put plainly: Glucose-dependent insulin release in mouse insulinoma cells (MIN6). The class given is cell-based. The settings on record: multiplicity of insulin efflux increase in relation to control; 10 uM compound, 20 mM glucose, 1 hour. The method, then:
Experiment B2: Glucose-Dependent Insulin Release in Mouse Insulinoma Cells (MIN6).
MIN6 (mouse insulinoma) cells were seeded on a plate covered with PDL (poly-D-lysine) at 5×10^5/well and cultured for 48 hours. […] Tested compounds, after dilution to the concentration of 10-40 uM in KRBH buffer with the addition of 20 mM glucose, were added to the cells and incubated for 1 hour to induce insulin release. Negative control was KRBH buffer with the addition of 2 mM glucose. Concentration of released insulin was determined using ELISA test (Mercodia).
Table 4 present MIN6Insulin @10 uM values for representative compounds of the invention. MIN6Insulin @10 uM value is a multiplicity of insulin efflux increase in relation to control experiment, following addition of 10 uM of tested compound.

For data set [4] the following is noted: I phase of clinical trials; cited from earlier work.
Data set [5] concerns diabetes STZ-treated mice. Put plainly: Von Frey test on diabetes STZ-treated mice (tactile allodynia). The class given is in vivo, mouse. The settings on record: 60 minutes after administration, mean of group. The method, then:
Experiment B5: Von Frey Test on Diabetes STZ-Treated Mice.
Tactile allodynia was assessed by electronic von Frey apparatus (Bioseb) equipped with a flexible filament. Reaction to stimuli was assessed using growing applied pressure (from 0 to 10 g) on a plantar side of the hind foot of mice. Pregabalin was a control, as reference healthy mice with preserved normal response to the stimuli were used. In the day of the experiment, mice were placed separately in cages with a wire mesh bottom for 1 h for habituation to experimental conditions. After habituation period, each mouse was treated 3 times alternately, with 30 s intervals between each measurement, to obtain starting values (before administration of the compound) of pain sensitivity. […] The results are presented in Table 7 as mean value for all mice in a given group (n=7-10).

T1 sequence (O14842 whole entry): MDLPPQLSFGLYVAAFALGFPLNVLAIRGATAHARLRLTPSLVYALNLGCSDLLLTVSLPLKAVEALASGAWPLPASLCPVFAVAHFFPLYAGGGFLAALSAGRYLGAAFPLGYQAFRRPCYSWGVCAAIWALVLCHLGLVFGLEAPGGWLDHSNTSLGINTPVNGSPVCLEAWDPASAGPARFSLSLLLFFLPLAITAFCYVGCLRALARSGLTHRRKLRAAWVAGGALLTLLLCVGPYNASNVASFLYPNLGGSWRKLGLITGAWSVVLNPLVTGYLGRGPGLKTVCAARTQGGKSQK

`CC#C[C@@H](CC(=O)O)c1ccc(OC(C)C(C)C)cc1` (mixture of isomers) [Example F13, (3S)-3-(4-{[(2R/S)-3-methylbutan-2-yl]oxy}phenyl)hex-4-ynoic acid]: in data set [1], the “% PTAK-875” value is “A (>120% PTAK-875)”. Still for that read-out and setting: the entry for `CC#C[C@@H](CC(=O)O)c1ccc(OCC(C)C(C)C)cc1` (mixture of isomers) [Example F37, (3S)-3-{4-[(2R/S)-2,3-dimethylbutoxy]phenyl}hex-4-ynoic acid] is “A (>120% PTAK-875)”; for `CC#C[C@@H](CC(=O)O)c1ccc(OCCC(C)CC)cc1` (mixture of isomers) [Example F38, (3S)-3-(4-{[(3R/S)-3-methylpentyl]oxy}phenyl)hex-4-ynoic acid] it is “B (81-120% PTAK-875)”. In the case of `CC#CC(CC(=O)O)c1ccc(OC/C=C(\C)CC/C=C(\C)CCC=C(C)C)cc1` (racemic) [Example F11, (3R/S)-3-(4-{[(2E,6E)-3,7,11-trimethyldodeca-2,6,10-trien-1-yl]oxy}-phenyl)hex-4-ynoic acid], the “% PTAK-875” value in data set [1] is on record as “D (21-50% PTAK-875)”.

As to `CC#CC(CC(=O)O)c1ccc(OCC(C)(C)C)cc1` (racemic) [Example F26, (3R/S)-3-[4-(2,2-dimethylpropoxy)phenyl]hex-4-ynoic acid], in data set [1], the “% PTAK-875” value is listed as “E (<20% PTAK-875)”. With `CC#C[C@@H](CC(=O)O)c1ccc(OCCC)cc1` [Example F1, (3S)-3-(4-propoxyphenyl)hex-4-ynoic acid], the “% PTAK-875” value in data set [1] is given as “D (21-50% PTAK-875)”. Regarding `CC#C[C@@H](CC(=O)O)c1ccc(OCCCC)cc1` [Example F2, (3S)-3-(4-butoxyphenyl)hex-4-ynoic acid], the “% PTAK-875” value in data set [1] is “A (>120% PTAK-875)”. The same measure, in the same setting: the entry for `CC#C[C@@H](CC(=O)O)c1ccc(OCCCCCC)cc1` [Example F4, (3S)-3-[4-(hexyloxy)phenyl]hex-4-ynoic acid] is “A (>120% PTAK-875)”; for `CC#C[C@@H](CC(=O)O)c1ccc(OCCCCCCC)cc1` [Example F5, (3S)-3-[4-(heptyloxy)phenyl]hex-4-ynoic acid] it is “A (>120% PTAK-875)”. As to `CC#C[C@@H](CC(=O)O)c1ccc(OC/C=C(\C)CCC=C(C)C)cc1` [Example F6, (3S)-3-(4-{[(2E)-3,7-dimethylocta-2,6-dien-1-yl]oxy}phenyl)hex-4-ynoic acid], in data set [2], the “AUC for glucose (0-540 min.)” value is given as 25184.1 and the “AUC for insulin (0-180 min.)” value is reported as 492.5. Turning to `CC#C[C@@H](CC(=O)O)c1ccc(OC(CC)CC)cc1` [Example F17, (3S)-3-[4-(pentan-3-yloxy)phenyl]hex-4-ynoic acid], the “% PTAK-875” value in data set [1] is recorded as “E (<20% PTAK-875)”. On the same count and under the same terms, for `CC#C[C@@H](CC(=O)O)c1ccc(OC/C=C/CCC)cc1` [Example F18, (3S)-3-{4-[(2E)-hex-2-en-1-yloxy]phenyl}hex-4-ynoic acid] the value was “A (>120% PTAK-875)”. The same measure, in the same setting: the entry for `CC#C[C@@H](CC(=O)O)c1ccc(OC/C=C/C=C/C)cc1` [Example F19, (3S)-3-{4-[(2E,4E)-hexa-2,4-dien-1-yloxy]phenyl}hex-4-ynoic acid] is “A (>120% PTAK-875)”. The same measure, in the same setting: for `C=CCCCOc1ccc([C@@H](C#CC)CC(=O)O)cc1` [Example F20, (3S)-3-[4-(pent-4-en-1-yloxy)phenyl]hex-4-ynoic acid] the value was “B (81-120% PTAK-875)”. As for `CC#CCCOc1ccc([C@@H](C#CC)CC(=O)O)cc1` [Example F21, (3S)-3-[4-(pent-3-yn-1-yloxy)phenyl]hex-4-ynoic acid], in data set [1], the “% PTAK-875” value is “C (51-80% PTAK-875)”. `CC#C[C@@H](CC(=O)O)c1ccc(OCC#CCC)cc1` [Example F22, (3S)-3-[4-(pent-2-yn-1-yloxy)phenyl]hex-4-ynoic acid]: in data set [1], the “% PTAK-875” value is “C (51-80% PTAK-875)”. What is called melting point is the temperature of the solid-liquid transition. Molecule `CC#C[C@@H](CC(=O)O)c1ccc(OCCC(C)C)cc1` [Example F24, (3S)-3-[4-(3-methylbutoxy)phenyl]hex-4-ynoic acid] showed a melting point of 26.4 to 27.1 °C. Also, in data set [2], the “AUC for glucose (0-540 min.)” value was determined as 24289.7 and the “AUC for insulin (0-180 min.)” value is on record as 329.0. For the same molecule, the “MIN6Insulin @10 uM” value in data set [3] is listed as 2.627.

Take `CC#C[C@@H](CC(=O)O)c1ccc(OCCC(C)(C)C)cc1` [Example F27, (3S)-3-[4-(3,3-dimethylbutoxy)phenyl]hex-4-ynoic acid]: in data set [1], the “% PTAK-875” value is “D (21-50% PTAK-875)”. For the molecule `CC#C[C@@H](CC(=O)O)c1ccc(OCC=C(C)C)cc1` [Example F28, (3S)-3-{4[(3-methylbut-2-en-1-yl)oxy]phenyl}hex-4-ynoic acid], the melting point fell in the range of 52.1 to 53.1 °C. Moreover, in data set [2], the “AUC for glucose (0-540 min.)” value came to 28377.4 and the “AUC for insulin (0-180 min.)” value came out at 499.2. Moreover, in data set [3], the “MIN6Insulin @10 uM” value was found to be 2.782. In the case of `C=C(C)CCOc1ccc([C@@H](C#CC)CC(=O)O)cc1` [Example F30, (3S)-3-{4[(3-methylbut-3-en-1-yl)oxy]phenyl}hex-4-ynoic acid], the “% PTAK-875” value in data set [1] is listed as “A (>120% PTAK-875)”. As for `CC#C[C@@H](CC(=O)O)c1ccc(OCC(C)=C(C)C)cc1` [Example F33, (3S)-3-{4-[(2,3-dimethylbut-2-en-1-yl)oxy]phenyl}hex-4-ynoic acid], in data set [2], the “AUC for glucose (0-540 min.)” value worked out at 19393.1 and the “AUC for insulin (0-180 min.)” value stood at 519.1. For the same molecule, in data set [3], the “MIN6Insulin @10 uM” value is given as 3.895.

For the molecule `C=C(C)/C=C/COc1ccc([C@@H](C#CC)CC(=O)O)cc1` [Example F34, (3S)-3-(4-{[(2E)-4-methylpenta-2,4-dien-1-yl]oxy}phenyl)hex-4-ynoic acid], the melting point was 94.7 to 95.7 °C. The “% PTAK-875” value in data set [1] was “A (>120% PTAK-875)”. Regarding `CC#C[C@@H](CC(=O)O)c1ccc(OCCCC(F)(F)F)cc1` [Example F39, (3S)-3-[4-(4,4,4-trifluorobutoxy)phenyl]hex-4-ynoic acid], the “% PTAK-875” value in data set [1] is reported as “B (81-120% PTAK-875)”. Consider `CC#C[C@@H](CC(=O)O)c1ccc(OCCCCC(F)(F)F)cc1` [Example F40, (3S)-3-{4[(5,5,5-trifluoropentyl)oxy]phenyl}hex-4-ynoic acid], for which the “% PTAK-875” value in data set [1] is “B (81-120% PTAK-875)”. Regarding `CC#C[C@@H](CC(=O)O)c1ccc(OCc2cccc(-c3ccc(C(F)(F)F)cc3)c2)cc1` [Example R2, (3S)-3-[4-({3-[4-(trifluoromethyl)phenyl]phenyl}methoxy)phenyl]-hex-4-ynoic acid, reference compound], the insulin plasma level result in data set [4] is on record as “enhanced insulin plasma level”. Further, the “MIN6Insulin @10 uM” value in data set [3] came to 1.567. Regarding `CC(C)C[C@H](CN)CC(=O)O` [Pregabalin, reference compound], the “Applied pressure causing the response, sick animal (neuropathic) after compound administration” value in data set [5] (3 mg/kg p.o.) is on record as 2.04 g; in data set [5] (10 mg/kg p.o.), 2.65 g; in data set [5] (30 mg/kg p.o.), 4.11 g.
